Experimental data published in patent US20080090834A1, “SELECTIVE AZOLE PDE10A INHIBITOR COMPOUNDS” (Pfizer Inc, priority 2006, published 2008).
Structures can show the parent of a compound that is named as a salt.

What follows are compounds tested against T1, cloned rat PDE10A full-length enzyme (Rattus norvegicus, UniProt Q9QYJ6) (assay: PDE10 enzyme inhibition, [3H]cAMP scintillation proximity assay). Details: rat PDE10A from Sf9 cells, 20 nM [3H]cAMP, SPA beads, 20 minute incubation at room temperature.
T1 construct: cloned rat PDE10A full-length enzyme grown in transfected Sf9 insect cells; made in house; host or cells: Sf9 insect cells
T1 sequence (Q9QYJ6 1-794): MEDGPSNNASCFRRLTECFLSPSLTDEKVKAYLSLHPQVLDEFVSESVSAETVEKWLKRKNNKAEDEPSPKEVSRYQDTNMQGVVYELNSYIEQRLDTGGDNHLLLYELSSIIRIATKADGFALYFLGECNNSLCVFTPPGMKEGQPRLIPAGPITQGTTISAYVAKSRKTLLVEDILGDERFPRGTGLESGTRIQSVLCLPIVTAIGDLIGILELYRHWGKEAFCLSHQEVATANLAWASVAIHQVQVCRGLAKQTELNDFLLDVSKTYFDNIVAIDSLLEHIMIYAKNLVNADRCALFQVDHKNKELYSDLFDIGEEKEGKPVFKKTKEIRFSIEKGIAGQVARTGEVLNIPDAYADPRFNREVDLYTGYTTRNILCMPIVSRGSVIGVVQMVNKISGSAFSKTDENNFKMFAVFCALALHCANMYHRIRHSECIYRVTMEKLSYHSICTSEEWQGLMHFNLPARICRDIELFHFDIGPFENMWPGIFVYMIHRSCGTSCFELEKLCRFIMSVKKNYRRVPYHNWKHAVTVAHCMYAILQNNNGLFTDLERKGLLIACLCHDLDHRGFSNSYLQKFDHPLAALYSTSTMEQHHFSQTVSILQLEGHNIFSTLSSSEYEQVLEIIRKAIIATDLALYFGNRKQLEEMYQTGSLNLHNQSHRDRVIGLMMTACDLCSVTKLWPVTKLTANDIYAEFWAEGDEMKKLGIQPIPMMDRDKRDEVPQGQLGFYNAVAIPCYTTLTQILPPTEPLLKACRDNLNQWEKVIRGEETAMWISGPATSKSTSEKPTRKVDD
Assay type: biochemical
Protocol: Compounds of the present invention were evaluated for ability to inhibit PDE10 enzyme with the following Assay procedure
The enzyme used in the procedure was cloned rat PDE10A full-length enzyme grown in transfected Sf9 insect cells. Cloned enzyme was extracted from homogenized cell pellets and stored frozen in homogenizing buffer until use. Compounds were initially dissolved in 100% DMSO and diluted out in 20 percent DMSO/water solution. Final concentration of DMSO in the assay was 2 percent as compounds were tested in triplicate in 96 well plates. Compound solution was placed in well, then tritiated cyclic AMP (New England Nuclear NET275) in assay buffer was added at 20 nM concentration. Then PDE10 enzyme in assay buffer of 50 mM Tris, 8.3 mM MgCl2, pH 7.5 at room temperature was added for a final assay volume of 100 ul. Concentration of enzyme was added such that less than 10 percent of [3H]cAMP at 20 nM was converted to detectable end product, [3H]AMP bound to SPA (Scintillation Proximity Assay) beads. Phosphodiesterase scintillation proximity yttrium silicate beads from Amersham Biosciences (RPNQ0150) were added (50 ul at 20 mg/ml) after a 20 minute incubation at room temperature. Zinc sulphate as a component of the beads stops the phosphodiesterase reaction.
Non-specific binding to SPA beads was determined by addition of 1 uM papaverine. Total conversion by enzyme without inhibitor of [3H]cAMP to [3H]AMP, as detected by scintillation of [3H]AMP bound to yttrium silicate beads, was determined in the presence of vehicle-only.
For `Cc1ccc(-n2cc(-c3nccs3)nc2-c2ccc(-n3c(C(F)(F)F)nc4cccnc43)cc2)cn1` [Example 87], the IC50 was under 1000 nM.
`CNCCc1ccc(-n2cc(-c3nccs3)nc2-c2ccc(-n3ccc4cccnc43)cc2)cc1` [Example 31] was tested, and the IC50 was 6.63 nM.
Work on `Cc1ccc(-n2cc(-c3ccccn3)nc2-c2ccc(-n3cnc4cccnc43)cc2)cn1` (single isomer, unassigned) [Example 49, 3-(4-(1-(6-methylpyridin-3-yl)-4-(pyridin-2-yl)-1H-imidazol-2-yl)phenyl)-3H-imidazo[4,5-b]pyridine] yielded an IC50 of 5.5 nM.
Compound `CN(C)Cc1cn(-c2ccc(-c3nc(-c4ccccn4)cn3-c3cccnc3)cc2)c2ncccc12` [Example 18, N,N-dimethyl(1-(4-(4-(pyridin-2-yl)-1-(pyridin-3-yl)-1H-imidazol-2-yl)phenyl)-1H-pyrrolo[2,3-b]pyridin-3-yl)methanamine TFA salt] has an IC50 of 24.3 nM.
`Cc1ccc(-n2cc(-c3cscn3)nc2-c2ccc(-n3c(C(C)C)nc4cccnc43)cc2)cn1` [Example 98, 2-isopropyl-3-(4-(1-(6-methylpyridin-3-yl)-4-(thiazol-4-yl)-1H-imidazol-2-yl)phenyl)-3H-imidazo[4,5-b]pyridine] gave an IC50 of 1.13 nM.
Work on `COc1ccc(-c2[nH]c(-c3cccs3)nc2-c2ccc(-n3ccnc3)cc2)cc1` [Example 106, 1-(4-(5-(4-methoxyphenyl)-2-(thiophen-2-yl)-1H-imidazol-4-yl)phenyl)-1H-imidazole] yielded an IC50 of 11 nM.
Work on `c1cnc2c(c1)ccn2-c1ccc(-c2nc(-c3nccs3)cn2-c2ccc(N3CCOCC3)nc2)cc1` [Example 34, 1-(4-(1-(6-morpholinopyridin-3-yl)-4-(thiazol-2-yl)-1H-imidazol-2-yl)phenyl)-1H-pyrrolo[2,3-b]pyridine] yielded an IC50 of 0.436 nM.
Work on `Cc1cc(-c2nc(-c3cncs3)[nH]c2-c2cnccn2)ccc1-n1ccc2cccnc21` [Example 112] yielded an IC50 of 175 nM.
For `COc1ccc(-n2cc(-c3ccccn3)nc2-c2ccc(-n3ccc4cccnc43)cc2)cn1` [Example 9, 1-(4-(1-(6-methoxypyridin-3-yl)-4-(pyridin-2-yl)-1H-imidazol-2-yl)phenyl)-1H-pyrrolo[2,3-b]pyridine], the IC50 was 3.07 nM.
Compound `c1ccc(-c2cn(-c3cccnc3)c(-c3ccc(-n4nnc5cccnc54)cc3)n2)nc1` [Example 51, 3(4-(4-(pyridin-2-yl)-1-(pyridin-3-yl)-1H-imidazol-2-yl)phenyl)-3H-[1,2,3]triazole[4,5-b]pyridine bis-TFA salt] has an IC50 of 11.5 nM.
For `Cc1ccc(-n2cc(-c3nccs3)nc2-c2ccc(-n3c(=O)[nH]c4cccnc43)cc2)cn1` [Example 118, 3-(4-(1-(6-methylpyridin-3-yl)-4-(thiazol-2-yl)-1H-imidazol-2-yl)phenyl)-1H-imidazo[4,5-b]pyridin-2(3H)-one], the IC50 was 0.748 nM.
For `Clc1ccc(-c2cn(-c3cncnc3)c(-c3ccc(-n4ccc5cccnc54)cc3)n2)s1` [Example 62, 1-(4-(4-(5-chlorothiophen-2-yl)-1-(pyrimidin-5-yl)-1H-imidazol-2-yl)phenyl)-1H-pyrrolo[2,3-b]pyridine], the IC50 was 65.1 nM.
For `Cc1ccc(-n2cc(-c3ccccn3)nc2-c2ccc(-n3ccc4cccnc43)c(C)c2)cn1` [Example 12, 1-(2-methyl-4-(1-(6-methylpyridin-3-yl)-4-(pyridin-2-yl)-1H-imidazol-2-yl)phenyl)-1H-pyrrolo[2,3-b]pyridine], the IC50 was 31.7 nM.
`c1ccc(-c2cn(-c3cccnc3)c(-c3ccc(-n4c5c(c6cccnc64)CSCC5)cc3)n2)nc1` [Example 17, 9-[4-(4-pyridin-2-yl-1-pyridin-3-yl-1H-imidazol-2-yl)phenyl]-5,7,8,9-tetrahydrothiopyrano[3′,4′,4,5]pyrrolo[2,3-b]pyridine] showed an IC50 of 0.912 nM.
`COc1ccc(-c2[nH]c(-c3cccs3)nc2-c2ccc(-n3cnc4ccccc43)cc2)cc1` [Example 111] showed an IC50 of 9.33 nM.
`Cc1ccc(-n2cc(-c3cncs3)nc2-c2ccc(-n3c(C(C)C)nc4cccnc43)cc2)cn1` [Example 97] showed an IC50 of 1.96 nM.
`c1ccc(-c2cn(-c3cccnc3)c(-c3ccc(-n4nnc5ccccc54)cc3)n2)nc1` [Example 42, 1-(4-(4-(pyridin-2-yl)-1-(pyridin-3-yl)-1H-imidazol-2-yl)phenyl)-1H-benzo[d][1,2,3]triazole bis-TFA salt] gave an IC50 of 67.8 nM.
`c1ccc(-c2cn(-c3cncnc3)c(-c3ccc(-n4ccc5cccnc54)cc3)n2)nc1` [Example 4] gave an IC50 of 13.6 nM.
For `COc1nc2cccnc2n1-c1ccc(-c2nc(-c3nc(C)cs3)cn2-c2ccc(C)nc2)cc1` [Example 90, 2-methoxy-3-(4-(1-(6-methylpyridin-3-yl)-4-(4-methylthiazol-2-yl)-1H-imidazol-2-yl)phenyl)-3H-imidazol[4,5-b]pyridine], the IC50 was 0.287 nM.
With `c1ccc(-n2nc(-c3ccc(-n4ccc5cccnc54)cc3)c(-c3cccnc3)n2)nc1` [Example 119, 1-(4-(2-(pyridin-2-yl)-5-(pyridin-3-yl)-2H-1,2,3-triazol-4-yl)phenyl)-1H-pyrrolo[2,3-b]pyridine] the IC50 was 134 nM.
In the case of `Cc1cc(-n2cc(-c3ccncc3)nc2-c2ccc(-n3ccc4cccnc43)cc2)ccn1` [Example 69, 1-(4-(1-(2-methylpyridin-4-yl-4-(pyridin-4-yl)-1H-imidazol-2-yl)phenyl)-1H-pyrrolo-[2,3-b]pyridinebis-TFA salt], the IC50 is reported as 89.7 nM.
`CCCOc1nc2cccnc2n1-c1ccc(-c2nc(-c3ccccn3)cn2-c2ccc(C)nc2)cc1` [Example 91, 3-(4-(1-(6-methylpyridin-3-yl)-4-(pyridin-2-yl)-1H-imidazol-2-yl)phenyl)-2-propoxy-3H-imidazo[4,5-b]pyridine] showed an IC50 of 0.741 nM.
For `Cc1ccc(-n2cc(-c3ccccn3)nc2-c2ccc(-n3c(=O)[nH]c4cccnc43)cc2)cn1` [Example 95], the IC50 was 3.91 nM.
For `c1ccc(-c2cc(-c3cccnc3)nn2-c2ccc(-n3ccc4cccnc43)cc2)nc1` [Example 122, 1-(4-(5-(pyridin-2-yl)-3-(pyridin-3-yl)-1H-pyrazol-1-yl)phenyl)-1H-pyrrolo[2,3-b]pyridine TFA salt], the IC50 was 21.1 nM.
Work on `c1cnc2c(c1)ccn2-c1ccc(-c2nc(-c3nccs3)cn2-c2ccncc2)cc1` [Example 25, 1-(4-(1-(pyridin-4-yl)-4-(thiazol-2-yl)-1H-imidazol-2-yl)phenyl)-1H-pyrrolo[2,3-b]pyridine] yielded an IC50 of 4.46 nM.
With `c1ccc(-n2cc(-c3cccnc3)c(-c3ccc(-n4ccc5cccnc54)cc3)n2)nc1` [Example 120, 1-(4-(1-(pyridin-2-yl)-4-(pyridin-3-yl)-1H-pyrazol-3-yl)phenyl)-1H-pyrrolo[2,3-b]pyridine] the IC50 was 42.9 nM.
Work on `Cc1csc(-c2cn(-c3cncnc3)c(-c3ccc(-n4ccc5cccnc54)cc3)n2)n1` [Example 63] yielded an IC50 of 13.8 nM.
Work on `Cc1ncccc1-n1cc(-c2nccs2)nc1-c1ccc(-n2ccc3cccnc32)cc1` [Example 28, 1-(4-(1-(2-methylpyridin-3-yl)-4-(thiazol-2-yl)-1H-imidazol-2-yl)phenyl]-1H-pyrrolo[2,3-b]pyridine] yielded an IC50 of 44.1 nM.
For `Cc1cc(-c2nc(-c3cccs3)n(O)c2-c2cnccn2)ccc1-n1ccc2cccnc21` [Example 110, 1-(4-(1-hydroxy-5-(pyrazin-2-yl)-2-(thiophen-2-yl)-1H-imidazol-4-yl)-2-methylphenyl)-1H-pyrrolo[2,3-b]pyridine], the IC50 was 36.6 nM.
In the case of `Cc1cc(-n2cc(-c3ccccn3)nc2-c2ccc(-n3ccc4cccnc43)cc2)ccn1` [Example 5, 1-(4-(1-(2-methylpyridin-4-(pyridin-2-yl)-1H-imidazol-2-yl)-1H-imidazol-2-yl)phenyl)-1H-pyrrolo[2,3-b]pyridine], the IC50 is reported as 4.62 nM.
`c1ccc(-c2cn(-c3cccnc3)c(-c3ccc(-c4nccc5cccnc45)cc3)n2)nc1` [Example 78] was tested, and the IC50 was 3.26 nM.
`c1ccc(-c2cn(-c3cccnc3)c(-c3ccc(-n4c5ccccc5c5cccnc54)cc3)n2)nc1` [Example 19, 9-(4-(4-(pyridin-2-yl)-1-(pyridin-3-yl)-1H-imidazol-2-yl)phenyl)-9H-pyrido[2,3-b]indole] showed an IC50 of 0.992 nM.
